The values that follow come from ChEMBL document CHEMBL1152072, “Synthesis and structure-activity relationships of novel antiseptics” (1997).

Type in all cases: functional
Test [1] has as its system Staphylococcus aureus. Put plainly: Antibacterial activity against Staphylococcus aureus after 3 mins.
In test [2] the test system is Escherichia coli. Put plainly: Antibacterial activity against Escherichia coli after 3 mins.
In test [3] the test system is Pseudomonas aeruginosa. Put plainly: Antibacterial activity against Pseudomonas aeruginosa ATCC 10145 after 3 mins.
For test [4], the system named is Burkholderia cepacia. Put plainly: Antibacterial activity against Burkholderia cepacia 10 after 3 mins.
The test system of test [5] is Staphylococcus aureus. Description: Antibacterial activity against methicillin-resistant Staphylococcus aureus 57 after 3 mins.
Test [6] concerns Serratia marcescens. Description: Antibacterial activity against Serratia marcescens IFO 12648 after 30 seconds.
Test [7] concerns Enterococcus faecalis. Put plainly: Antibacterial activity against Enterococcus faecalis IFO 12580 after 30 seconds.
The test system of test [8] is Staphylococcus epidermidis. Put plainly: Antibacterial activity against Staphylococcus epidermidis ATCC 12228 after 30 seconds.
The subject of test [9] is Pseudomonas aeruginosa. Put plainly: Antibacterial activity against Pseudomonas aeruginosa ATCC 10145 after 30 seconds.
In test [10] the test system is Staphylococcus aureus. Put plainly: Antibacterial activity against Staphylococcus aureus FDA 209P after 30 seconds.
Test [11] deals with Escherichia coli. Put plainly: Antibacterial activity against Escherichia coil NIHJ JC-2 after 30 seconds.
Test [12] has as its system Enterococcus faecalis. Description: Antibacterial activity against Enterococcus faecalis IFO 12580.
The subject of test [13] is Serratia marcescens. Put plainly: Antibacterial activity against Serratia marcescens IFO 12648,after 30 seconds.
The subject of test [14] is Staphylococcus aureus. Put plainly: Antibacterial activity against Staphylococcus aureus after 30 seconds.
Test [15] relates to Escherichia coli. Description: Antibacterial activity against Escherichia coli NIHJ JC-2,after 30 seconds.

Consider `CCCCCCCC/N=C(N)/N=C(\N)Nc1ccc(Cl)c(Cl)c1.Cl`, for which the Activity in [1], in test [2] and in [3] was 50 µg/mL throughout.
`CCCCCCCCCC/N=C(N)/N=C(\N)Nc1ccc(Cl)c(Cl)c1.Cl`: the Activity was 100 µg/mL in test [1], 20 µg/mL in [2], 100 µg/mL in [3] and 100 µg/mL in test [4].
For `Cl.N=C(NCc1ccc(Cl)c(Cl)c1)NC(=N)Nc1ccc(Cl)c(Cl)c1`, the Activity in [1] is 50 µg/mL; in test [2], 10 µg/mL; in test [3], 10 µg/mL.
Take `CCCCCCCCCC/N=C(N)/N=C(\N)NCc1ccc(Cl)c(Cl)c1.Cl`: the Activity in [1] is 50 µg/mL; in [2] it was “<=10 ug ml-1”; in test [3] it was 100 µg/mL; in test [4], 100 µg/mL.
Take `CCCCCC/N=C(N)/N=C(\N)Nc1ccc(Cl)c(Cl)c1.Cl`: the Activity was found to be 100 µg/mL in test [1], 20 µg/mL in [2], 20 µg/mL in test [3] and 20 µg/mL in [4].
As to `Cl.N=C(NCc1ccc(Cl)c(Cl)c1)NC(=N)Nc1ccc(Cl)c(Cl)c1Cl`, the Activity entry in test [1], in test [2], in test [3] and in test [4] was “<=10 ug ml-1” throughout.
Take `CCCCCCCCCCCC/N=C(N)/N=C(\N)NCc1ccc(Cl)c(Cl)c1.Cl`: the Activity in test [1] was 100 µg/mL; in test [2], 20 µg/mL; in test [3] it was 100 µg/mL; in [4] it was greater than 500 µg/mL.
Turning to `CCCCCC/N=C(N)/N=C(\N)Nc1ccc(Cl)cc1.Cl`, the Activity in [1] was determined as 500 µg/mL; in test [2] it was 100 µg/mL; in test [3] it was 20 µg/mL; in [4] it was 100 µg/mL.
Consider `CCCCCCCCCCCC/N=C(N)/N=C(\N)Nc1ccc(Cl)c(Cl)c1.Cl`, for which the Activity was 100 µg/mL in [1], 20 µg/mL in test [2], 20 µg/mL in test [3] and greater than 500 µg/mL in test [4].
With `Cl.N=C(NCc1ccc(Cl)c(Cl)c1)NC(=N)Nc1ccc(Cl)cc1`, the Activity in test [1] was 50 µg/mL; in test [5], 100 µg/mL; in [2], 50 µg/mL; in [3], 50 µg/mL.
Regarding `CCCCCC/N=C(N)/N=C(\N)NCc1ccc(Cl)cc1.Cl`, the Activity is greater than 100 µg/mL in test [1], 100 µg/mL in [2], 50 µg/mL in [3] and 100 µg/mL in test [4].
As for `CCCCCCCC/N=C(N)/N=C(\N)NCc1ccc(Cl)c(Cl)c1.Cl`, the Activity in test [6] was 20 µg/mL; in test [7], 10 µg/mL; in test [1], “<=10 ug ml-1”; in test [8], 5 µg/mL; in test [2], “<=10 ug ml-1”; in test [9], 10 µg/mL. The Activity in test [10] was 20 µg/mL; in test [3], “<=10 ug ml-1”; in test [4], “<=10 ug ml-1”; in test [11], 20 µg/mL.
As for `N=C(NCCCCCCNC(=N)NC(=N)Nc1ccc(Cl)cc1)NC(=N)Nc1ccc(Cl)cc1` [CHLORHEXIDINE], the Activity in [12] was greater than 160 µg/mL; in test [13] it was 40 µg/mL; in test [14], greater than 160 µg/mL; in [1], 100 µg/mL; in [8] it was 40 µg/mL; in test [2], 20 µg/mL. For the same compound, the Activity was 160 µg/mL in test [9], 80 µg/mL in test [15], 100 µg/mL in test [3] and greater than 500 µg/mL in [4].
In the case of `Cl.N=C(NCc1ccc(Cl)c(Cl)c1)NC(=N)Nc1ccc(Cl)cc1Cl`, the Activity was 20 µg/mL in [1], “<=10 ug ml-1” in test [2], “<=10 ug ml-1” in [3] and “<=10 ug ml-1” in test [4].
For `CCCCCC/N=C(N)/N=C(\N)NCc1ccc(Cl)c(Cl)c1.Cl`, the Activity in test [1] is 50 µg/mL; in test [2], 50 µg/mL; in test [3], 50 µg/mL; in test [4], 100 µg/mL.
Take `Cc1ccc(NC(=N)/N=C(\N)NCc2ccc(Cl)c(Cl)c2)cc1C.Cl`: the Activity in test [1] was 20 µg/mL; in [2], “<=10 ug ml-1”; in [3] it was “<=10 ug ml-1”; in test [4], 20 µg/mL.
Turning to `Cl.N=C(NCc1ccc(Cl)c(Cl)c1)NC(=N)Nc1ccc(I)cc1`, the Activity in [1] is 20 µg/mL; in test [2], “<=10 ug ml-1”; in test [3], “<=10 ug ml-1”; in test [4], “<=10 ug ml-1”.
For the compound `Cl.N=C(NCc1ccc(Cl)c(Cl)c1)NC(=N)Nc1ccc(Br)cc1`, the Activity is 20 µg/mL in test [1], “<=10 ug ml-1” in [2], 20 µg/mL in test [3] and 20 µg/mL in test [4].
